Results as given in the NIST ThermoML archive (doi:10.1021/je060339m).

Conditions: Liquid

CCCOC(C)=O [propyl ethanoate]
Conditions	mass density [kg/m3]
298.15 K, 100 kPa	882
298.15 K, 1000 kPa	882.5
298.15 K, 2000 kPa	883.4
298.15 K, 3000 kPa	884.3
298.15 K, 3300 kPa	884.6
298.15 K, 5000 kPa	886.4
298.15 K, 10000 kPa	890.7
298.15 K, 15000 kPa	894.8
298.15 K, 20000 kPa	898.7
298.15 K, 25000 kPa	902.5
298.15 K, 30000 kPa	906.9
298.15 K, 35000 kPa	911.7
303.15 K, 100 kPa	876.2
303.15 K, 1000 kPa	876.8
303.15 K, 2000 kPa	877.7
303.15 K, 3000 kPa	878.8
303.15 K, 3300 kPa	879
303.15 K, 5000 kPa	880.8
303.15 K, 10000 kPa	885.3
303.15 K, 15000 kPa	889.5
303.15 K, 20000 kPa	893.5
303.15 K, 25000 kPa	897.4
303.15 K, 30000 kPa	902
303.15 K, 35000 kPa	906.9
308.15 K, 100 kPa	870.5
308.15 K, 1000 kPa	871.2
308.15 K, 2000 kPa	872.2
308.15 K, 3000 kPa	873.2
308.15 K, 3300 kPa	873.4
308.15 K, 5000 kPa	875.3
308.15 K, 10000 kPa	879.9
308.15 K, 15000 kPa	884.3
308.15 K, 20000 kPa	888.4
308.15 K, 25000 kPa	892.4
308.15 K, 30000 kPa	897.2
308.15 K, 35000 kPa	902.3
313.15 K, 100 kPa	864.9
313.15 K, 1000 kPa	865.5
313.15 K, 2000 kPa	866.6
313.15 K, 3000 kPa	867.6
313.15 K, 3300 kPa	867.9
313.15 K, 5000 kPa	869.9
313.15 K, 10000 kPa	874.7
313.15 K, 15000 kPa	879.2
313.15 K, 20000 kPa	883.5
313.15 K, 25000 kPa	887.6
313.15 K, 30000 kPa	892.6
313.15 K, 35000 kPa	897.7
318.15 K, 100 kPa	859.3
318.15 K, 1000 kPa	859.8
318.15 K, 2000 kPa	860.9
318.15 K, 3000 kPa	862.1
318.15 K, 3300 kPa	862.4
318.15 K, 5000 kPa	864.4
318.15 K, 10000 kPa	869.4
318.15 K, 15000 kPa	874.1
318.15 K, 20000 kPa	878.5
318.15 K, 25000 kPa	882.8
318.15 K, 30000 kPa	887.9
318.15 K, 35000 kPa	893.2
323.15 K, 100 kPa	853.6
323.15 K, 1000 kPa	854.8
323.15 K, 2000 kPa	855.8
323.15 K, 3000 kPa	856.9
323.15 K, 3300 kPa	857.1
323.15 K, 5000 kPa	859
323.15 K, 10000 kPa	864.1
323.15 K, 15000 kPa	869
323.15 K, 20000 kPa	873.5
323.15 K, 25000 kPa	877.9
323.15 K, 30000 kPa	883.2
323.15 K, 35000 kPa	888.8
328.15 K, 100 kPa	848
328.15 K, 1000 kPa	848.7
328.15 K, 2000 kPa	849.9
328.15 K, 3000 kPa	851
328.15 K, 3300 kPa	851.3
328.15 K, 5000 kPa	853.7
328.15 K, 10000 kPa	859
328.15 K, 15000 kPa	864
328.15 K, 20000 kPa	868.7
328.15 K, 25000 kPa	873.3
328.15 K, 30000 kPa	878.8
328.15 K, 35000 kPa	884.4
333.15 K, 100 kPa	842.5
333.15 K, 1000 kPa	843.6
333.15 K, 2000 kPa	844.8
333.15 K, 3000 kPa	845.9
333.15 K, 3300 kPa	846.2
333.15 K, 5000 kPa	848.3
333.15 K, 10000 kPa	853.9
333.15 K, 15000 kPa	859
333.15 K, 20000 kPa	863.9
333.15 K, 25000 kPa	868.6
333.15 K, 30000 kPa	874.3
333.15 K, 35000 kPa	880.1
338.15 K, 100 kPa	836.7
338.15 K, 1000 kPa	838
338.15 K, 2000 kPa	839.2
338.15 K, 3000 kPa	840.5
338.15 K, 3300 kPa	840.8
338.15 K, 5000 kPa	842.8
338.15 K, 10000 kPa	848.6
338.15 K, 15000 kPa	853.9
338.15 K, 20000 kPa	859
338.15 K, 25000 kPa	863.8
338.15 K, 30000 kPa	869.6
338.15 K, 35000 kPa	875.5
343.15 K, 100 kPa	831.2
343.15 K, 1000 kPa	832.3
343.15 K, 2000 kPa	833.7
343.15 K, 3000 kPa	834.9
343.15 K, 3300 kPa	835.3
343.15 K, 5000 kPa	837.6
343.15 K, 10000 kPa	843.6
343.15 K, 15000 kPa	849.1
343.15 K, 20000 kPa	854.3
343.15 K, 25000 kPa	859.2
343.15 K, 30000 kPa	865
343.15 K, 35000 kPa	871.2
348.15 K, 100 kPa	825.6
348.15 K, 1000 kPa	826.8
348.15 K, 2000 kPa	828.1
348.15 K, 3000 kPa	829.5
348.15 K, 3300 kPa	829.9
348.15 K, 5000 kPa	832.2
348.15 K, 10000 kPa	838.3
348.15 K, 15000 kPa	844.1
348.15 K, 20000 kPa	849.5
348.15 K, 25000 kPa	854.5
348.15 K, 30000 kPa	860.6
348.15 K, 35000 kPa	866.8
353.15 K, 100 kPa	820
353.15 K, 1000 kPa	821.2
353.15 K, 2000 kPa	822.6
353.15 K, 3000 kPa	824
353.15 K, 3300 kPa	824.4
353.15 K, 5000 kPa	826.9
353.15 K, 10000 kPa	833.3
353.15 K, 15000 kPa	838.8
353.15 K, 20000 kPa	844.8
353.15 K, 25000 kPa	850
353.15 K, 30000 kPa	856.4
353.15 K, 35000 kPa	862.7
358.15 K, 100 kPa	811.6
358.15 K, 1000 kPa	812.9
358.15 K, 2000 kPa	814.4
358.15 K, 3000 kPa	815.8
358.15 K, 3300 kPa	816.3
358.15 K, 5000 kPa	818.6
358.15 K, 10000 kPa	825.3
358.15 K, 15000 kPa	831.5
358.15 K, 20000 kPa	837.2
358.15 K, 25000 kPa	842.8
363.15 K, 100 kPa	804.8
363.15 K, 1000 kPa	806.9
363.15 K, 2000 kPa	808.4
363.15 K, 3000 kPa	810
363.15 K, 3300 kPa	810.4
363.15 K, 5000 kPa	812.9
363.15 K, 10000 kPa	819.9
363.15 K, 15000 kPa	826.2
363.15 K, 20000 kPa	832.1
363.15 K, 25000 kPa	837.7
363.15 K, 30000 kPa	844.4
368.15 K, 1000 kPa	801
368.15 K, 2000 kPa	802.7
368.15 K, 3000 kPa	804.3
368.15 K, 3300 kPa	804.8
368.15 K, 5000 kPa	807.4
368.15 K, 10000 kPa	814.6
368.15 K, 15000 kPa	821.2
368.15 K, 20000 kPa	827.3
368.15 K, 25000 kPa	833.1
373.15 K, 1000 kPa	795.5
373.15 K, 2000 kPa	797.2
373.15 K, 3000 kPa	798.9
373.15 K, 3300 kPa	799.5
373.15 K, 5000 kPa	802.3
373.15 K, 10000 kPa	809.8
373.15 K, 15000 kPa	816.6
373.15 K, 20000 kPa	822.9
373.15 K, 25000 kPa	828.9
378.15 K, 1000 kPa	789.4
378.15 K, 2000 kPa	791.3
378.15 K, 3000 kPa	793
378.15 K, 3300 kPa	793.6
378.15 K, 5000 kPa	796.3
378.15 K, 10000 kPa	803.3
378.15 K, 15000 kPa	811.3
378.15 K, 20000 kPa	817.7
378.15 K, 25000 kPa	824
378.15 K, 30000 kPa	831.2
383.15 K, 1000 kPa	783.6
383.15 K, 2000 kPa	785.5
383.15 K, 3000 kPa	787.3
383.15 K, 3300 kPa	788.2
383.15 K, 5000 kPa	791.2
383.15 K, 10000 kPa	799.2
383.15 K, 15000 kPa	806.6
383.15 K, 20000 kPa	813.2
383.15 K, 25000 kPa	819.7
388.15 K, 1000 kPa	777.9
388.15 K, 2000 kPa	779.8
388.15 K, 3000 kPa	781.6
388.15 K, 3300 kPa	782.1
388.15 K, 5000 kPa	785.4
388.15 K, 10000 kPa	793.8
388.15 K, 15000 kPa	801.5
388.15 K, 20000 kPa	808.5
388.15 K, 25000 kPa	815.2
388.15 K, 30000 kPa	823.2
393.15 K, 1000 kPa	771.8
393.15 K, 2000 kPa	773.9
393.15 K, 3000 kPa	775.9
393.15 K, 3300 kPa	776.4
393.15 K, 5000 kPa	779.7
393.15 K, 10000 kPa	788.6
393.15 K, 15000 kPa	796.5
393.15 K, 20000 kPa	803.8
393.15 K, 25000 kPa	810.7
